The subject of data set [1] is Mycobacterium tuberculosis. Kind of data set: In vitro anti-mycobacterial activity against Mycobacterium tuberculosis H37Rv (Rifampin and Isoniazid susceptible ATCC 27294 strain). The data set is classed as functional. Also noted: concentration or dose not given beside the values.
In data set [2] the test system is Mycobacterium tuberculosis. Kind of data set: In vitro antimicrobacterial activity to inhibit 90% of Mycobacterium tuberculosis H37Rv (Rifampin and Isoniazid susceptible ATCC 27294 strain), relative to that of controls. Format: functional.
For data set [3], the system named is Mycobacterium avium. The experiment in a line: In vitro anti-mycobacterial activity against Mycobacterium avium at 12.5 ug/mL. The data set is classed as functional.
Data set [4] deals with Vero. The experiment in a line: Compound was tested for its cytotoxicity on Vero cells. Format: functional, cell-based. The conditions noted are these: Chlorocebus sabaeus.
Data set [5] in a line: Safety index from cytotoxicity to that of minimal inhibitory concentration. The data set is classed as toxicity. As to conditions: read-out: S.I.

Structures are written as SMILES. ≈ marks a conversion by molar mass, not a printed value.

In data set [1], `COc1ccc(/C=N/NC(=O)c2ccncc2)cc1F` displayed an Inhibition of 99%. Also, in data set [2], the MIC is < 0.2 mg/L.

`O=C(N/N=C/c1ccc(C(F)(F)F)cc1)c1ccncc1` yielded an inhibition at 12.5 µg/mL in data set [3] of 82%. Also, the Inhibition in data set [1] came to 100%. Besides, the MIC in data set [2] is < 0.2 mg/L.

`O=C(N/N=C/c1ccccc1F)c1ccncc1` came in with an Inhibition in data set [1] of 100%. In addition, the MIC in data set [2] was 0.05 mg/L (≈ 0.206 µM). The molecule also returned an IC50 in data set [4] of 8.4 mg/L (≈ 34.5 µM). For the same molecule, the selectivity ratio in data set [5] was determined as 168.

In turn, `C/C(=N\NC(=O)c1ccncc1)c1ccc(Cl)c(Cl)c1` yielded an Inhibition in data set [1] of 100%. Also, the minimum inhibitory concentration (MIC) in data set [2] was < 0.2 mg/L.

On to `O=C(N/N=C(\c1ccccc1)C(F)(F)F)c1ccncc1`, for which, in data set [1], the Inhibition came to 100%. This molecule displayed an MIC in data set [2] of 6.25 mg/L (≈ 21.3 µM).

As for `C/C(=N\NC(=O)c1ccncc1)C(F)(F)F`, the Inhibition in data set [1] amounted to 99%. In addition, the MIC in data set [2] is 0.05 mg/L (≈ 0.216 µM).

`O=C(N/N=C/C(F)(F)F)c1ccncc1`: the Inhibition in data set [1] is listed as 100%. Inhibition of growth in data set [2] (MIC) required 0.05 mg/L (≈ 0.23 µM).

The molecule `C/C(=N\NC(=O)c1ccncc1)c1ccccc1F` had an Inhibition in data set [1] of 100%. In data set [2], this molecule yielded an MIC of 0.2 mg/L (≈ 0.777 µM). For the same molecule, the IC50 in data set [4] is > 125 mg/L. In data set [5], the selectivity ratio is > 625.

`C/C=N/NC(=O)c1ccncc1` yielded an Inhibition in data set [1] of 99%. In data set [2], the MIC turned out to be 0.025 mg/L (≈ 0.153 µM).

On to `C/C(=N\NC(=O)c1ccncc1)c1ccc(F)cc1`, for which, in data set [1], the Inhibition came to 99%. Also, the MIC in data set [2] is < 0.2 mg/L. For the same molecule, the IC50 in data set [4] was > 10 mg/L. Besides, the selectivity ratio in data set [5] is > 50.

`O=C(N/N=C/c1cccc(F)c1)c1ccncc1` returned an inhibition at 12.5 µg/mL in data set [3] of 82%. The same molecule gave an Inhibition in data set [1] of 99%. Further, the MIC in data set [2] was < 0.2 mg/L. The IC50 in data set [4] was > 6.25 mg/L. Also, the selectivity ratio in data set [5] was > 31.2.

The molecule `O=C(N/N=C/c1cccc(C(F)(F)F)c1)c1ccncc1` displayed an Inhibition in data set [1] of 99%. This molecule also gave an MIC in data set [2] of 0.1 mg/L (≈ 0.341 µM). For the same molecule, the IC50 in data set [4] was > 10 mg/L. Further, in data set [5], the selectivity ratio was > 100.

Consider `C/C(=N\NC(=O)c1ccncc1)c1cccc(F)c1`, for which the Inhibition in data set [1] was found to be 100%. In addition, the MIC in data set [2] was < 0.05 mg/L.

Turning to `NNC(=O)c1ccncc1` [ISONIAZID], the MIC in data set [2] was found to be 0.05 mg/L (≈ 0.365 µM). Moreover, the IC50 in data set [4] is > 1000 mg/L.

Take `CO[C@H]1/C=C/O[C@@]2(C)Oc3c(C)c(O)c4c(O)c(c(/C=N/N5CCN(C)CC5)c(O)c4c3C2=O)NC(=O)/C(C)=C\C=C\[C@H](C)[C@H](O)[C@@H](C)[C@@H](O)[C@@H](C)[C@H](OC(C)=O)[C@@H]1C` [RIFAMPIN]: the MIC in data set [2] turned out to be 0.06 mg/L (≈ 0.0729 µM). For the same molecule, the IC50 in data set [4] worked out at 147 mg/L (≈ 179 µM).

What is called Inhibition is the change of the read-out against control, counted positive when it falls. As a reminder, the MIC is the least concentration at which growth counts as inhibited. The term inhibition denotes the change of the read-out against control, counted positive when it falls. The IC50 is the midpoint of a concentration-inhibition curve.

These data come from ChEMBL document CHEMBL1133318, “Isoniazid-related copper(II) and nickel(II) complexes with antimycobacterial in vitro activity. Part 9” (Bioorg Med Chem Lett, 2000).
